# According to the supplement of paper PMC10307832:
# Experiments:
# Test in all cases: relative viability (nuclei count vs DMSO), 5 days (fraction); higher = more cells survive
# Imatinib = compound: Cc1ccc(NC(=O)c2ccc(CN3CCN(C)CC3)cc2)cc1Nc1nccc(-c2cccnc2)n1 [Imatinib]
# Summary of the method: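 After an overnight hold at 37 °C, lung cancer cell lines in 1536-well plates were pinned with five library-drug doses (not always all listed), each √10 from the next, on vehicle-anchored plates. The cells stayed 5 days without fresh medium, then a one-step fix, permeabilisation and Hoechst stain preceded 4× imaging and MetaXpress nuclear counts. A plate passed only with control CV under 25% and at least one doubling. Viability is the median, over plates, of treated-well nuclei relative to vehicle-well nuclei.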
# Imatinib + Tozasertib = compound: Cc1ccc(NC(=O)c2ccc(CN3CCN(C)CC3)cc2)cc1Nc1nccc(-c2cccnc2)n1 [Imatinib] + Cc1cc(Nc2cc(N3CCN(C)CC3)nc(Sc3ccc(NC(=O)C4CC4)cc3)n2)n[nH]1 [Tozasertib] (partner 0.1 µM)
# Summary of the method: (§1)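 Relative viability equals treated-well nuclei counts divided by vehicle-well nuclei counts. Counts came from 4× images of lung cancer cell lines grown in 1536-well plates for 5 days after pin-tool dosing on the day after seeding. Dosing used one drug alone or a fixed anchor-drug dose plus five library-drug doses (not always all listed) in √10 steps, and values are medians of duplicate plates.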
# Imatinib + Decitabine = compound: Cc1ccc(NC(=O)c2ccc(CN3CCN(C)CC3)cc2)cc1Nc1nccc(-c2cccnc2)n1 [Imatinib] + Nc1ncn([C@H]2C[C@H](O)[C@@H](CO)O2)c(=O)n1 [Decitabine] (partner 2 µM)
# Summary of the method: as §1
# Imatinib + Trametinib = compound: Cc1ccc(NC(=O)c2ccc(CN3CCN(C)CC3)cc2)cc1Nc1nccc(-c2cccnc2)n1 [Imatinib] + CC(=O)Nc1cccc(-n2c(=O)n(C3CC3)c(=O)c3c(Nc4ccc(I)cc4F)n(C)c(=O)c(C)c32)c1 [Trametinib] (partner 0.02 µM)
# Summary of the method: as §1
# Imatinib + AZD7762 = compound: Cc1ccc(NC(=O)c2ccc(CN3CCN(C)CC3)cc2)cc1Nc1nccc(-c2cccnc2)n1 [Imatinib] + NC(=O)Nc1cc(-c2cccc(F)c2)sc1C(=O)N[C@H]1CCCNC1 [AZD7762] (partner 0.2 µM)
# Summary of the method: as §1
# Imatinib + Olaparib = compound: Cc1ccc(NC(=O)c2ccc(CN3CCN(C)CC3)cc2)cc1Nc1nccc(-c2cccnc2)n1 [Imatinib] + O=C(c1cc(Cc2n[nH]c(=O)c3ccccc23)ccc1F)N1CCN(C(=O)C2CC2)CC1 [Olaparib] (partner 8 µM)
# Summary of the method: as §1
# Imatinib + Vorinostat = compound: Cc1ccc(NC(=O)c2ccc(CN3CCN(C)CC3)cc2)cc1Nc1nccc(-c2cccnc2)n1 [Imatinib] + O=C(CCCCCCC(=O)Nc1ccccc1)NO [Vorinostat] (partner 1 µM)
# Summary of the method: as §1
# Imatinib + Pemetrexed = compound: Cc1ccc(NC(=O)c2ccc(CN3CCN(C)CC3)cc2)cc1Nc1nccc(-c2cccnc2)n1 [Imatinib] + Nc1nc2[nH]cc(CCc3ccc(C(=O)N[C@@H](CCC(=O)O)C(=O)O)cc3)c2c(=O)[nH]1 [Pemetrexed] (partner 0.2 µM)
# Summary of the method: as §1
# Imatinib + Palbociclib = compound: Cc1ccc(NC(=O)c2ccc(CN3CCN(C)CC3)cc2)cc1Nc1nccc(-c2cccnc2)n1 [Imatinib] + CC(=O)c1c(C)c2cnc(Nc3ccc(N4CCNCC4)cn3)nc2n(C2CCCC2)c1=O [Palbociclib] (partner 0.5 µM)
# Summary of the method: as §1
# Imatinib + OSI-027 = compound: Cc1ccc(NC(=O)c2ccc(CN3CCN(C)CC3)cc2)cc1Nc1nccc(-c2cccnc2)n1 [Imatinib] + COc1cccc2cc(-c3nc([C@H]4CC[C@H](C(=O)O)CC4)n4ncnc(N)c34)[nH]c12 [OSI-027] (partner 0.5 µM)
# Summary of the method: as §1
cell line,measurement,setting,value
NCI-H1648,relative viability,Imatinib; 0.02 µM,0.744
same,relative viability,Imatinib; 0.06325 µM,0.627
same,relative viability,Imatinib; 0.2 µM,0.699
same,relative viability,Imatinib; 0.6325 µM,0.421
same,relative viability,Imatinib; 2 µM,0.618
same,relative viability,Imatinib + Tozasertib; first compound 0.02 µM,0.542
same,relative viability,Imatinib + Tozasertib; first compound 0.06325 µM,0.349
same,relative viability,Imatinib + Tozasertib; first compound 0.2 µM,0.426
same,relative viability,Imatinib + Tozasertib; first compound 2 µM,0.443
same,relative viability,Imatinib + Decitabine; first compound 0.02 µM,0.442
same,relative viability,Imatinib + Decitabine; first compound 0.06325 µM,0.478
same,relative viability,Imatinib + Decitabine; first compound 0.2 µM,0.448
same,relative viability,Imatinib + Decitabine; first compound 0.6325 µM,0.393
same,relative viability,Imatinib + Decitabine; first compound 2 µM,0.456
same,relative viability,Imatinib + Trametinib; first compound 0.02 µM,0.422
same,relative viability,Imatinib + Trametinib; first compound 0.06325 µM,0.364
same,relative viability,Imatinib + Trametinib; first compound 0.2 µM,0.459
same,relative viability,Imatinib + Trametinib; first compound 0.6325 µM,0.301
same,relative viability,Imatinib + Trametinib; first compound 2 µM,0.478
same,relative viability,Imatinib + AZD7762; first compound 0.02 µM,0.723
same,relative viability,Imatinib + AZD7762; first compound 0.06325 µM,0.732
same,relative viability,Imatinib + AZD7762; first compound 0.2 µM,0.686
same,relative viability,Imatinib + AZD7762; first compound 0.6325 µM,0.642
same,relative viability,Imatinib + AZD7762; first compound 2 µM,0.526
same,relative viability,Imatinib + Olaparib; first compound 0.02 µM,0.958
same,relative viability,Imatinib + Olaparib; first compound 0.06325 µM,0.633
same,relative viability,Imatinib + Olaparib; first compound 0.2 µM,0.971
same,relative viability,Imatinib + Olaparib; first compound 0.6325 µM,0.307
same,relative viability,Imatinib + Olaparib; first compound 2 µM,0.776
same,relative viability,Imatinib + Vorinostat; first compound 0.02 µM,0.503
same,relative viability,Imatinib + Vorinostat; first compound 0.06325 µM,0.272
same,relative viability,Imatinib + Vorinostat; first compound 0.2 µM,0.422
same,relative viability,Imatinib + Vorinostat; first compound 0.6325 µM,0.268
same,relative viability,Imatinib + Vorinostat; first compound 2 µM,0.476
same,relative viability,Imatinib + Pemetrexed; first compound 0.02 µM,0.722
same,relative viability,Imatinib + Pemetrexed; first compound 0.06325 µM,0.642
same,relative viability,Imatinib + Pemetrexed; first compound 0.2 µM,0.721
same,relative viability,Imatinib + Pemetrexed; first compound 0.6325 µM,0.543
same,relative viability,Imatinib + Pemetrexed; first compound 2 µM,0.673
same,relative viability,Imatinib + Palbociclib; first compound 0.02 µM,0.23
same,relative viability,Imatinib + Palbociclib; first compound 0.06325 µM,0.262
same,relative viability,Imatinib + Palbociclib; first compound 0.2 µM,0.256
same,relative viability,Imatinib + Palbociclib; first compound 0.6325 µM,0.267
same,relative viability,Imatinib + Palbociclib; first compound 2 µM,0.237
same,relative viability,Imatinib + OSI-027; first compound 0.02 µM,0.253
same,relative viability,Imatinib + OSI-027; first compound 0.06325 µM,0.266
same,relative viability,Imatinib + OSI-027; first compound 0.2 µM,0.243
same,relative viability,Imatinib + OSI-027; first compound 2 µM,0.237
